# Data reported in PubChem BioAssay AID2060485 (Molecular Pharmacology Branch, DTP, NCI, 2025).
# pIC50: −log10 of the molar value.
# Test system: A375 multi-cell spheroids with HUVEC/MSC, viability
# Assay: Anticancer human tumor A375 cell line growth inhibition [GQUAD];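 also: spheroids exposed to compounds for seven days before readout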
# Conditions: for pIC50: curve of first compound; for viability, T/C: stronger effect = lower value
# Text: DNA G-quadruplex Stabilizer Agents in Combinations in Complex Spheroids
# A high-throughput screen of multi-cell type tumor spheroids was designed to identify active combinations of DNA G-quadruplex stabilizer agents and targeted small molecules. Complex spheroids include a stromal component modeled by human endothelial cells (HUVEC) and fibroblasts modeled by human mesenchymal stem cells (MSCs). The concentration ranges selected for each drug and investigational agent were based upon clinically achievable concentrations if the clinical Cmax of the agent was known.
# Compounds. The drugs and investigational agents: pidnarulex (CX-5461; NSC782164), APTO-253 (NSC789042), BRACO-19 (NSC847499), peposertib (NSC802822), ceralasertib (NSC780249), elimusertib (NSC800525), camonsertib (NSC841442), AZD-1390 (NSC803789), olaparib (NSC753686), talazoparib (NSC767125), ART-558 (NSC835418), sotorasib (NSC818433), MRTX-1133 (NSC836407), SN-38 (NSC673596), topotecan (NSC609699), etoposide (NSC141540), doxorubicin (NSC123127), gemcitabine (NSC613327), 5-fluorouracil (NSC19893), paclitaxel (NSC125973), vemurafenib (NSC761431), panobinostat (NSC761190), R-306465 (JNJ-16241199; NSC773264), adavosertib (NSC754352), TP-3654 (NSC805149), carboplatin (NSC241240), KSQ-4279 (NSC840948), and staurosporine (NSC755774) were obtained from the National Cancer Institute (NCI) Developmental Therapeutics Program Chemical Repository (34). The FDA-approved anticancer drug set is available from the NCI Developmental Therapeutics Program. […] The stock solutions were prepared in dimethyl sulfoxide (DMSO, Sigma-Aldrich, St. Louis, MO, cat. D2650) at 800-fold the tested concentration and stored at -70 degrees C prior to their use. All drugs and investigational agents were tested over a range starting from a high concentration at or near the clinical Cmax and decreasing in half-log increments. If the clinical Cmax for an agent had not been determined, the highest concentration tested was 10 microM.
# 2.3 Cell Culture. All cells were maintained in an incubator at 37 degrees C and 5% CO2 with 95% humidity. The PDC lines were cultured according to standard operating procedures established by the NCI PDMR. All PDCs were thawed and cultured in Matrigel-coated flasks prepared with a working solution of 1X Ham's F-12 nutrient mix, without supplementation (Invitrogen, cat. 11765054), 100 U/mL penicillin-streptomycin (Invitrogen, cat. 15140122), and 2.5% Matrigel (Corning Inc., cat. 354248) for the first three passages. The 857933-349-R-J2-PDC line was cultured in 6C/Colon 1B media, which includes advanced DMEM/F-12 (Thermo Fisher Scientific, cat. 12634028), 10 mM HEPES (Thermo Fisher Scientific, cat. 15630080), 1X GlutaMAX supplement (Thermo Fisher Scientific, cat. 35050061), 0.1 mg/mL primocin (InvivoGen, cat. ant-pm-2), 10% defined fetal bovine serum, heat inactivated (HyClone Laboratories Inc., cat. SH30070.03HI), 50% L-WRN conditioned media (ATCC, cat. CRL-3276), 1.25 mM N-Acetyl-L-cysteine (Sigma-Aldrich, cat. A9165), 10 mM nicotinamide (Sigma-Aldrich, cat. N0636), 1X B-27 supplement (Thermo Fisher Scientific, cat. 17504044), 1X N-2 supplement (Thermo Fisher Scientific, cat. 17502048), 10 microM Y-27632 dihydrochloride (Tocris Bioscience, cat. 1254), and 50 ng/mL human EGF recombinant protein (Thermo Fisher Scientific, cat. PHG0311). The 485176-168-R4-J1-PDC line was cultured in Panc media, which includes all 6C/Colon 1B media components plus 100 ng/mL human FGF-10 (Thermo Fisher Scientific, cat. 100-26), 500 nM SB-431542 (Selleckchem, cat. S1067), and gastrin (Tocris, cat. 3006).
# […]
# [1] = second compound 0.0316 µM, first compound 0.0316 µM
# [2] = second compound 0.0316 µM, first compound 0.316 µM
# [3] = second compound 0.1 µM, first compound 0.0316 µM
# [4] = second compound 0.1 µM, first compound 0.316 µM
# [5] = second compound 0.316 µM, first compound 0.0316 µM
# [6] = second compound 0.316 µM, first compound 0.316 µM
# [7] = second compound 1 µM, first compound 0.0316 µM
# [8] = second compound 1 µM, first compound 0.316 µM
# [9] = second compound 3.16 µM, first compound 0.0316 µM
# [10] = second compound 3.16 µM, first compound 0.316 µM
# [11] = second compound 10 µM, first compound 0.0316 µM
# [12] = second compound 10 µM, first compound 0.316 µM
smiles,measurement,setting,value
COc1ccc([C@@H](O)c2cc(-c3ncnc4cc(N5CCOCC5)ccc34)c(F)cc2Cl)nn1 + Cc1[nH]c2ccc(F)cc2c1-c1nc2c3cccnc3c3ncccc3c2[nH]1,pIC50,second compound 0.0316 µM,< 5.00
same,pIC50,second compound 0.1 µM,< 5.00
same,pIC50,second compound 0.316 µM,< 5.00
same,pIC50,second compound 1 µM,< 5.00
same,pIC50,second compound 3.16 µM,< 5.00
same,pIC50,second compound 10 µM,< 5.00
same,"viability, T/C",[1],105%
same,"viability, T/C","second compound 0.0316 µM, first compound 0.1 µM",108%
same,"viability, T/C",[2],103%
same,"viability, T/C","second compound 0.0316 µM, first compound 1 µM",126%
same,"viability, T/C","second compound 0.0316 µM, first compound 3.16 µM",100%
same,"viability, T/C","second compound 0.0316 µM, first compound 10 µM",77.5%
same,"viability, T/C",[3],106%
same,"viability, T/C","second compound 0.1 µM, first compound 0.1 µM",102%
same,"viability, T/C",[4],105%
same,"viability, T/C","second compound 0.1 µM, first compound 1 µM",112%
same,"viability, T/C","second compound 0.1 µM, first compound 3.16 µM",96.6%
same,"viability, T/C","second compound 0.1 µM, first compound 10 µM",85.6%
same,"viability, T/C",[5],103%
same,"viability, T/C","second compound 0.316 µM, first compound 0.1 µM",112%
same,"viability, T/C",[6],105%
same,"viability, T/C","second compound 0.316 µM, first compound 1 µM",110%
same,"viability, T/C","second compound 0.316 µM, first compound 3.16 µM",95.3%
same,"viability, T/C","second compound 0.316 µM, first compound 10 µM",87.9%
same,"viability, T/C",[7],106%
same,"viability, T/C","second compound 1 µM, first compound 0.1 µM",112%
same,"viability, T/C",[8],109%
same,"viability, T/C","second compound 1 µM, first compound 1 µM",113%
same,"viability, T/C","second compound 1 µM, first compound 3.16 µM",98.2%
same,"viability, T/C","second compound 1 µM, first compound 10 µM",68.1%
same,"viability, T/C",[9],101%
same,"viability, T/C","second compound 3.16 µM, first compound 0.1 µM",96%
same,"viability, T/C",[10],101%
same,"viability, T/C","second compound 3.16 µM, first compound 1 µM",79.1%
same,"viability, T/C","second compound 3.16 µM, first compound 3.16 µM",77.2%
same,"viability, T/C","second compound 3.16 µM, first compound 10 µM",50.4%
same,"viability, T/C",[11],113%
same,"viability, T/C","second compound 10 µM, first compound 0.1 µM",107%
same,"viability, T/C",[12],122%
same,"viability, T/C","second compound 10 µM, first compound 1 µM",97.2%
same,"viability, T/C","second compound 10 µM, first compound 3.16 µM",78.2%
same,"viability, T/C","second compound 10 µM, first compound 10 µM",56.3%
Cc1[nH]c2ccccc2c1CCNCc1ccc(/C=C/C(=O)NO)cc1 + Cc1[nH]c2ccc(F)cc2c1-c1nc2c3cccnc3c3ncccc3c2[nH]1,pIC50,second compound 0.0316 µM,6.82
same,pIC50,second compound 0.1 µM,6.82
same,pIC50,second compound 0.316 µM,6.82
same,pIC50,second compound 1 µM,6.86
same,pIC50,second compound 3.16 µM,7.22
same,pIC50,second compound 10 µM,7.02
same,"viability, T/C","second compound 0.0316 µM, first compound 0.000999 µM",102%
same,"viability, T/C","second compound 0.0316 µM, first compound 0.00316 µM",108%
same,"viability, T/C","second compound 0.0316 µM, first compound 0.00999 µM",115%
same,"viability, T/C",[1],112%
same,"viability, T/C","second compound 0.0316 µM, first compound 0.0999 µM",73.4%
same,"viability, T/C",[2],10.5%
same,"viability, T/C","second compound 0.1 µM, first compound 0.000999 µM",105%
same,"viability, T/C","second compound 0.1 µM, first compound 0.00316 µM",109%
same,"viability, T/C","second compound 0.1 µM, first compound 0.00999 µM",110%
same,"viability, T/C",[3],124%
same,"viability, T/C","second compound 0.1 µM, first compound 0.0999 µM",72%
same,"viability, T/C",[4],9.67%
same,"viability, T/C","second compound 0.316 µM, first compound 0.000999 µM",110%
same,"viability, T/C","second compound 0.316 µM, first compound 0.00316 µM",98.1%
same,"viability, T/C","second compound 0.316 µM, first compound 0.00999 µM",118%
same,"viability, T/C",[5],116%
same,"viability, T/C","second compound 0.316 µM, first compound 0.0999 µM",72.4%
same,"viability, T/C",[6],10.8%
same,"viability, T/C","second compound 1 µM, first compound 0.000999 µM",98%
same,"viability, T/C","second compound 1 µM, first compound 0.00316 µM",103%
same,"viability, T/C","second compound 1 µM, first compound 0.00999 µM",113%
same,"viability, T/C",[7],106%
same,"viability, T/C","second compound 1 µM, first compound 0.0999 µM",65.9%
same,"viability, T/C",[8],8.42%
same,"viability, T/C","second compound 3.16 µM, first compound 0.000999 µM",76.4%
same,"viability, T/C","second compound 3.16 µM, first compound 0.00316 µM",78.5%
same,"viability, T/C","second compound 3.16 µM, first compound 0.00999 µM",81.9%
same,"viability, T/C",[9],86%
same,"viability, T/C","second compound 3.16 µM, first compound 0.0999 µM",26.4%
same,"viability, T/C",[10],5.39%
same,"viability, T/C","second compound 10 µM, first compound 0.000999 µM",86%
same,"viability, T/C","second compound 10 µM, first compound 0.00316 µM",93%
same,"viability, T/C","second compound 10 µM, first compound 0.00999 µM",98.3%
same,"viability, T/C",[11],92.2%
same,"viability, T/C","second compound 10 µM, first compound 0.0999 µM",48.4%
same,"viability, T/C",[12],5.49%
